Laboratory results taken from patent US20240025871A1, “METHODS AND SYSTEMS FOR PRODUCTION OF FURFURAL” (SHELL OIL COMPANY, priority 2020, published 2024).
Where “and” joins values, the source holds several entries; their conditions need not be identical. Identical values can stand only once. Like-named read-outs stand apart in the source and are kept apart here.

How the values were obtained:
[1] = cited from earlier work
[2] = Partition of components between water+sulfolane phase and methylnaphthalene phase after dehydration reaction; assay type: physicochemical; conditions: room temperature; for [Conc]water+S: concentration in aqueous (water+sulfolane) phase; for [conc]MN: concentration in methylnaphthalene phase; for wt. %water+S: content in aqueous (water+sulfolane) phase; for wt. %MN: content in methylnaphthalene phase; for Pmol: ratio of absolute amounts polar/apolar phase, polar phase volume twice the apolar
[3] = octanol-water; water-soluble solvents, Table 3; cited from earlier work
[4] = water-insoluble boronic acids, Table 1
[5] = water-insoluble solvents, Table 2

CCCCc1ccc(B(O)O)cc1 [4-butylphenyl boronic acid]
Water solubility g/L (20° C.) [1, 4]: Insoluble

CCCCCCCCB(O)O [octylboronic acid]
Water solubility g/L (20° C.) [1, 4]: Insoluble
water solubility (in words) [1]: water-insoluble

O=S1(=O)CCCC1 [sulfolane]
[Conc]water+S [2]: 5,100 mM
[conc]MN [2]: 370 mM
wt. %water+S [2]: 54 wt. %
wt. %MN [2]: 4 wt. %
wt. %MN ([2]; listed as Sulfolane): 4.0 wt. %
Pmol [2]: 13.8

CN1CCCC1=O [nMe-pyrrolidone]
LogP [3]: −0.4

O [water]
[Conc]water+S [2]: 27,600 mM
[conc]MN [2]: 92 mM
wt. %water+S [2]: 44 wt. %
wt. %MN [2]: 0.15 wt. %
Pmol [2]: 601

Cc1ccccc1B(O)O [o-tolylboronic acid]
Water solubility g/L (20° C.) [1, 4]: Slightly

CC(C)(C)c1ccc(B(O)O)cc1 [4-tert-Butylphenyl boronic acid]
Water solubility g/L (20° C.) [1, 4]: Insoluble

CC1CCC(=O)O1 (centres unmarked) [gamma valerolactone]
LogP [3]: −0.27

COCCOCCOC [Diglyme]
LogP [3]: −0.8

O=C1CCCO1 [gamma butyrolactone]
LogP [3]: −0.76

O=Cc1ccco1 [Furfural]
[Conc]water+S [2]: 103 mM
[conc]MN [2]: 144 mM
wt. %water+S [2]: 0.88 wt. %
wt. %water+S ([2]; listed as furfural): < 1 wt. %
wt. %MN [2]: 1.3 wt. %
Pmol [2]: 1.43
share of overall furfural produced contained in non-aqueous MN-rich phase [2]: 41%

CCc1ccc(O)cc1 [4Et-phenol]
Water solubility g/L (20° C.) [1, 5]: 6.1 g/L

c1ccc2occc2c1 [Benzofuran]
Water solubility g/L (20° C.) [1, 5]: insoluble

OB(O)c1ccccc1 [phenylboronic acid]
[Conc]water+S [2]: 125 mM
[conc]MN [2]: 340 mM
wt. %water+S ([2]; listed as PBA): < 1.3 wt. % and 1.3 wt. %
wt. %MN [2]: 3.7 wt. %
Pmol [2]: 0.74

Cc1cccc2ccccc12 [1-methylnaphtalene]
Water solubility g/L (20° C.) [1, 5]: 0.026 g/L
[Conc]water+S [2]: 3 mM
[conc]MN [2]: 7,000 mM
wt. %water+S ([2]; listed as 1-MN): 0.04 wt. %
wt. %water+S ([2]; listed as MN): < 0.1 wt. %
wt. %MN [2]: 91 wt. %
Pmol [2]: 0.0009
